Earlier results, collected in patent publication US12133918B2, “Partially pre-gelatinized cassava starch as pharmaceutical excipient” (Griffin Gamma, LLC, priority 2021, dated 2024).

Conditions: literature and experimental data

BCS class | permeability (BCS) | solubility (BCS) | SMILES
Class I | highly permeable | highly soluble | CC(=O)Oc1ccccc1C(=O)O [Acetylsalicylic acid, acetylsalicylic acid]
– | highly permeable | highly soluble | COc1ccccc1OCC(O)CO (centres unmarked) [Guaifenesin, 3-(2-methoxyphenoxy)-1,2-propanediol]
